Experimental data from patent US12624017B2, “Salt form of isoquinolinone type compound as rock inhibitor and preparation method therefor” (GUANGZHOU OCUSUN OPHTHALMIC BIOTECHNOLOGY CO., LTD., priority 2020, dated 2026).

Tests used:
[1] = Solid stability research (crystal form stability on storage); assay type: physicochemical; conditions: 40° C./75% RH 6 months; 25° C./60% RH 12 months
Protocol: The crystal form B of the compound of formula (II) was placed at 40° C./75% RH (sealed with a double-layer LDPE bag and further heat-sealed with an aluminum foil bag) for 6 months, and placed at 25° C./60% RH (sealed with a double-layer LDPE bag and further heat-sealed with an aluminum foil bag) for 12 months, respectively. The crystal form was tested individually at each sampling point to determine the crystal form stability of the sample.

[2] = Hygroscopicity research by dynamic vapor sorption (DVS); assay type: physicochemical; conditions: 25° C. and 80% RH
Protocol: Dynamic Vapor Sorption (DVS) Method
Instrument model: SMS DVS intrinsic dynamic vapor sorption instrument
A dynamic water sorption experiment consists of adsorption and desorption. It is generally believed that at a set relative humidity, the adsorption or desorption of the sample to moisture at this relative humidity is considered to have reached equilibrium when the sample weight reaches dm/dt≤0.01%.
Sample testing temperature: T=25° C.
Equilibrium time: dm/dt: 0.01%/min
Relative humidity variation range: 0%-95%-0%; RH (%)
Test humidity change at each step: 5%
The evaluation of hygroscopicity is classified as follows:
SMS DVS intrinsic dynamic vapor sorption instrument
10 to 15 mg of the crystal form B of the compound of formula (II) was put in a DVS sample tray for testing.

Cc1ccc(C(=O)OCn2cc(C)c3c(S(=O)(=O)N4CC[C@H](N)C4)cccc3c2=O)c(C)c1
Stability in accelerated and long-term tests [1]: good stability | Classification of hygroscopicity [2]: slightly hygroscopic | ΔW, hygroscopic weight gain ([2]; DVS): 0.736%
